Literature values in patent US6444192B1, “Diagnostic imaging of lymph structures” (The Regents of the University of California, priority 1999, dated 2002).
Like-named read-outs stand apart in the source and are kept apart here.

Settings: 3 to 5 mL in the breast mass and surrounding tissue

Compound: CCN(CC)c1ccc(C(=C2C=CC(=[N+](CC)CC)C=C2)c2cc(S(=O)(=O)[O-])ccc2S(=O)(=O)[O-])cc1.[Na+] [isosulfan blue]
- sentinel node detected (first 87 cases): 58%
- sentinel node detected (next 87 cases): 78%
